Legend:
[1] = Permeability in CALU-3 cells; type: in vitro ADME; conditions: human, CALU-3 monolayers, 10 μM compound, pH 7.4, 37° C.; for Papp A→B at 90 min, 10 μM: apical-to-basal; for Papp B→A at 90 min, 10 μM: basal-to-apical
Description: Permeability in CALU-3 Cells:
Permeability measurements across polarized, confluent CALU-3 cell monolayers grown on permeable filter supports are used to provide information on the potential of a compound to pass the lung epithelium. Apparent permeability coefficients (Papp) of the compounds across the CALU-3 cell monolayers are measured (pH 7.4, 37° C.) in apical-to-basal (AB) and basal-toapical (BA) transport direction.
CALU-3 cells (1-2×10^5 cells/1 cm^2 area) are seeded on filter inserts (Costar transwell polycarbonate filters, 0.4 μm pore size) and cultured (for 10-12 days DMEM) until tight monolayers are formed. Compounds of interest are dissolved in appropriate solvent (DMSO, 10 mM stock solution). Stock solutions are diluted with HTP-4 buffer (128.13 mM NaCl, 5.36 mM KC, 1 mM MgSO4, 1.8 mM CaCl2, 4.17 mM NaHCO3, 1.19 mM Na2HPO4×7H2O, 0.41 mM NaH2PO4xH2O, 15 mM HEPES, 20 mM glucose, 0.25% BSA, pH 7.4) to prepare the transport solutions (10 μM compound, final DMSO<=0.5%). The transport solution (TL) is applied to the apical or basolateral donor side for measuring A-B or B-A permeability (3 filter replicates), respectively. The receiver side contains the same buffer as the donor side. After 30 min of accommodation, samples are collected at the start t0=0 min and at the end of the experiment tn=90 min from the donor and at 0, 30, 60, and 90 min also from the receiver chamber. Volume removed is replenished by HTP-4 buffer. The compound concentration in the samples is measured by HPLC-MS/MS or scintillation counting. The permeability coefficient (Papp) and efflux ratio are calculated according to: Papp [cm/s]=(concentration receiver [nM]*volume receiver [mL]/time interval [sec])*(1/filter area)*(1/donor concentration [nM])
With example compounds given above, the following permeability values were determined in the CALU-3 cells assay: […]

[2] = biological target: T1, ENaC (Epithelial Sodium Channel) (Mus musculus, UniProt Q61180+Q9WU38+Q9WU39); experiment: Ussing chamber: short circuit current in M-1 cells; type: cell-based; conditions: Ussing chamber, mouse kidney M-1 cells, amiloride sensitive I_SC, apical application, 37° C.; read-out: IC50
T1 construct: Mouse kidney M-1 cells were cultivated in DMEM; endogenous in cells; host or cells: mouse kidney M-1 cells
T1 sequence (Q61180 1-699): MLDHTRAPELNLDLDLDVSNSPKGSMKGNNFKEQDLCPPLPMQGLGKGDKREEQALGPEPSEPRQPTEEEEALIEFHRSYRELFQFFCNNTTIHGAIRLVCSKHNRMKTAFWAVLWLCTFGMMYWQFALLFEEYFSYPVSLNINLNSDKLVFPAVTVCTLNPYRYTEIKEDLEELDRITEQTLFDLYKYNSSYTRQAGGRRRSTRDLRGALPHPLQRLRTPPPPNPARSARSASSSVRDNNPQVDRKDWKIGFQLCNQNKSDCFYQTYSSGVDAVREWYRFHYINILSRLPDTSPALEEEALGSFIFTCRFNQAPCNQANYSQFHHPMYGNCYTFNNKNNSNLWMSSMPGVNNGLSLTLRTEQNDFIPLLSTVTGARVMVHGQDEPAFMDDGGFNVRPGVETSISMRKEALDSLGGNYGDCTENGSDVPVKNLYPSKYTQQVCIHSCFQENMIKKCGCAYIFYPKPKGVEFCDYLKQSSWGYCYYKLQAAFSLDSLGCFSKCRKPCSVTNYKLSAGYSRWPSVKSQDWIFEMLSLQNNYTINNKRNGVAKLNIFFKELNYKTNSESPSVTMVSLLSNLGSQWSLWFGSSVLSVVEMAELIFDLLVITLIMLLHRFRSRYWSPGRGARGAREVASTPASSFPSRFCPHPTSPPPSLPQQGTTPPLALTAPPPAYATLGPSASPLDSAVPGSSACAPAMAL
T1 sequence (Q9WU38 1-638): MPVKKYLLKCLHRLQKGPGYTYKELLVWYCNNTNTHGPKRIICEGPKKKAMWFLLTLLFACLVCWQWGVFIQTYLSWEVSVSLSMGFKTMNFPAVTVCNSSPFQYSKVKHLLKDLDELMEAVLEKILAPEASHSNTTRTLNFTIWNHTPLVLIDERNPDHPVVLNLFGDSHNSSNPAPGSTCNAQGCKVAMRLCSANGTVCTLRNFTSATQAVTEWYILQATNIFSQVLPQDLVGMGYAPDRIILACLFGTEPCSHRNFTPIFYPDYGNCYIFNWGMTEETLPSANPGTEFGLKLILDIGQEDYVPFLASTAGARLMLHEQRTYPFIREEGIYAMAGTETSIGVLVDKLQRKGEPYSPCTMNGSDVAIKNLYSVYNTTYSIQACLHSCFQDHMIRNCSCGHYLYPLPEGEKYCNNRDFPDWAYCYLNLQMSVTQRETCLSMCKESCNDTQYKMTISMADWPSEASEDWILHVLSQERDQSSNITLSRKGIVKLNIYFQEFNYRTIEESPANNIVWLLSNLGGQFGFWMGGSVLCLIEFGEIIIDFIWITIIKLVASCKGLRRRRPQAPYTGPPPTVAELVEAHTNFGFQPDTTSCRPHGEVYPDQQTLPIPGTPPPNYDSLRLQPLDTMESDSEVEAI
T1 sequence (Q9WU39 1-655): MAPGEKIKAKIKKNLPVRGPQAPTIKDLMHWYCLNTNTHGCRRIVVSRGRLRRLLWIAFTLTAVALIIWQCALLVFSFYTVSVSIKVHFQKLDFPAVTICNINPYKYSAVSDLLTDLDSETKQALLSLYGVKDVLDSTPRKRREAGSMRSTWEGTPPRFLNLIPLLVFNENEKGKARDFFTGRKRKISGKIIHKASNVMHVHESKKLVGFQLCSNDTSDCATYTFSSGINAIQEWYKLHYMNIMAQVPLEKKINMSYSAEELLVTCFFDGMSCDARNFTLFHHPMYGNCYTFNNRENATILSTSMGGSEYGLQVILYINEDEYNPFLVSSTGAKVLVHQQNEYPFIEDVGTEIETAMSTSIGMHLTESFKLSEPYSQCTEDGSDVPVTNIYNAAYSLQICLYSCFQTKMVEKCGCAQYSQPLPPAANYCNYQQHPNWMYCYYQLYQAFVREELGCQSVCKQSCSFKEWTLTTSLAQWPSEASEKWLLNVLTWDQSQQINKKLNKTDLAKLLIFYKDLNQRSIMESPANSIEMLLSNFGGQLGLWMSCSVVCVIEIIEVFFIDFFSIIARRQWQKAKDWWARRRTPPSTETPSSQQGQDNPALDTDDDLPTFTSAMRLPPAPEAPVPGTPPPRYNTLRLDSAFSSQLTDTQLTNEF
Description: Mouse kidney M-1 cells were cultivated in DMEM containing 5% FCS and 5 μM dexamethasone for 10 to 12 days on polyester transwell filters. Filters were inserted into a teflon-coated well-plate which fit into the ussing chamber system. Prior to measurement the medium of M-1 cells was replaced with Caco-2 transport buffer (Invitrogen, Germany). During measurements, the Ussing chamber temperature was kept at 37° C. Short circuit currents (I_sc) were measured in the voltage-clamp mode with the software package Lab View for data acquisition and analysis. The transepithelial electrical resistance (TEER) was determined by the application of voltage steps of ±5 mV every 5 sec. Compounds were administered at a final concentration of 3 μM or at increasing concentrations (1-3-10 μM) to the apical solution. At the end of each experiment the amiloride sensitive I_SC was measured by adding 3 μM amiloride to the apical compartment. Results are expressed as inhibition in percent of the amiloride effect or as IC50.
With the example compounds given above, the following IC50 values were determined in the Ussing Chamber assay: […]

Structure (SMILES) | Papp A→B at 90 min, 10 μM [1] [×10⁻⁶ cm/s] | Papp B→A at 90 min, 10 μM [1] [×10⁻⁶ cm/s] | IC50 [2] [nM]
CCn1c(CNC(=O)c2nc(Cl)c(N)nc2N)[n+](C)c2cc(Cl)c(OCCOCCOC)cc21 [Example 3.8] | 0.2 | 0.2 | 0.4
CCn1c(CNC(=O)c2nc(Cl)c(N)nc2N)[n+](CC)c2cc(F)c(C(=O)N3CCOCC3)cc21 [Example 3.12] | 0.1 | 0.2 | 0.4
CCn1c(CNC(=O)c2nc(Cl)c(N)nc2N)[n+](CC)c2ccc(CNC(=O)CN(C)C)cc21.[Cl-] [Example 7.1] | < 0.9 | 0.2 | 2

— patent US9073954B2, “5-substituted benzimidazolium compounds” (Boehringer Ingelheim International GmbH, priority 2013, dated 2015)
